Source: patent US20030144347A1, “Method for treating autoimmune disease” (priority 2001, published 2003)

Key:
[1] = system: patient suffering from multiple sclerosis; assay: Case reports: patients suffering from multiple sclerosis treated with topiramate; format: in vivo, human
Description: A patient suffering from multiple sclerosis was administered 15 mg per day of topiramate. The dosage was increased after 15 days to 30 mg per day. At 15 mg, the patient's involuntary stretch rigid response stopped and the patient was able to get out of bed without falling backward when their feet touched the floor for the first time in nine years.
The patient previously took trazadone 100 mg at bedtime, clonazepan 1 mg three times a day, citalapram 40 mg each morning, gabapentrin 600 mg four times a day, and synthroid 25 mcg per day for two years. They had refused steroids and interferon because of side effects.
The Topamax was increased to 15 mg at bedtime and they reported “no bad bladder accidents” and that their leg and foot cramps had disappeared. […] They were discharged on Topamax 15 mg at bedtime along with previous medications. The patient was much improved medically and emotionally.
The patient returned four weeks later walking with a cane, having worked “10 to 14 hours per day and exhausted from my move with little sleep during the past month”. They reported “insatiable itching all over my body wherever my clothes touch the skin” which […] unsuccessfully tried to treat with cetirizine. […] said […] felt “dizzy, weak, Charlie horses in arches of feet and toes, unable to stand for more than 10 minutes before starting to have gait problems, problems sleeping, having trouble mentally and urine leaking”. […] working diagnoses are Axis I Bipolar disorder, not otherwise specified Axis III multiple sclerosis. […]

[2] = system: patient suffering from diabetes, Type 1; assay: Case report: patient suffering from diabetes, Type 1; format: in vivo, human; settings: Example 2
Description: A patient suffering from diabetes, Type 1, was administered 25 mg per day of topiramate for 10 days, which was then increased to 50 mg per day.

[3] = system: patient suffering from ulcerative colitis; assay: Case reports: patients suffering from ulcerative colitis; format: in vivo, human; settings: Example 9
Description: A patient suffering from ulcerative colitis began taking 25 mg per day of topiramate, with dosage increases of 25 mg/day each week. […] By the end of nine months, the patient's weight was decreased to 270 lbs from 315 lbs. Their disease was no longer affecting their ability to go to or stay at work. Their colonoscopy exam was negative for the first time since the onset of their illness.

[4] = system: patient suffering from systemic lupus erythematosis; assay: Case report: patient suffering from systemic lupus erythematosis; format: in vivo, human; settings: Example 11
Description: A young adolescent patient suffering from systemic lupus erythematosis and taking 30 mg bid of prednisone began taking 15 mg per day of topiramate. […] The prednisone was reduced to 25 mg per day after 4 weeks and to 10 mg after 6 weeks. This benefit has continued for over 6 months.

[5] = system: patient suffering from multiple autoimmune diseases; assay: Case report: patient suffering from multiple autoimmune diseases; format: in vivo, human; settings: Example 15
Description: A patient suffering from multiple autoimmune diseases was treated with topiramate. The patient was suffering from systemic lupus erythematosis (SLE) acquired anemia of gamma globulins, rheumatoid arthritis, Renaud's phenomena and Hashimotos thyroiditis. The patient was also taking medrol at doses of 32 mg per day and up to 132 mg per day and 25 mg weekly injections of methotrexate.
The topiramate treatment was begun at 15 mg per day and increased weekly by 15 mg to […] and then stabilized at 50 mg per day after two months. […] The frequency and intensity of their iritis, which was occurring every one to two months and lasting for 1 to 2 weeks, described as an “incredible pain relieved only by wrapping my eyes and head with a black towel”, decreased. It has occurred only once since using Topamax® when their parent was dying. […] The patient drove to their last appointment, which is the first time they have been able to do so in five years. They have now had consistent benefits for more than 6 months.

[6] = system: patient with rapid mood swings and severe intense itching; assay: Case report: patient with rapid mood swings and severe intense itching; format: in vivo, human; settings: Example 19; 12.5 mg at bedtime increased weekly until 50 mg
Description: A patient presented with rapid mood swings and a complaint of severe intense itching from clothing tags and some clothing, which began over twenty years ago. They were begun on gabapenten which was increased to 300 mg qid. […] Their itching was unchanged. They were begun on Topamax 12.5 mg at bedtime which was increased weekly by 12.5 mg until 50 mg.

[7] = system: patient with eosinophilic gastroenteritis; assay: Case report: patient with recurrent eosinophilic gastroenteritis; format: in vivo, human; settings: Example 20; 7.5 mg every three days then 7.5 mg every other day; withdrawn from prednisone
Description: A patient presented depressed related to a 15 pound weight gain following a recurrent of eosinophilic gastroenteritis treated with 20 mg of prednisone. This was their third bout in two years, all confirmed by a stomach biopsy. Each recurrence began between four and five months after being withdrawn from steroids, which had caused physical side effects and suspiciousness. A trial of Topamax 7.5 mg every three days and then 7.5 mg every other day was begun.

[8] = system: patient suffering from ulcerative colitis; assay: Case reports: patients suffering from ulcerative colitis; format: in vivo, human
human epilepsy = settings: clinical trials; cited from earlier work
[9] = system: animal model of kindled epilepsy; settings: cited from earlier work
[10] = Example 18, 15 mg at bedtime, two days later

For `CC1(C)O[C@@H]2[C@@H](CO[C@@]3(COS(N)(=O)=O)OC(C)(C)O[C@@H]23)O1` [topiramate, 2,3:4,5-bis-O-(1-methylethylidence)-β-D-fructopyranose sulfamate], the “duration of beneficial effect” value ([1]; Example 1, 12.5 mg per day) was “more than 10 months”, the “involuntary stretch rigid response” value ([1]; Example 1, 15 mg per day) was “stopped” and the spastic rigid response ([1]; Example 1, dose lowered to 12.5 mg per day) was “no longer present”. The “involuntary stretch rigid response” value ([1]; Example 1, higher dose of 30 mg per day) was “reversed this benefit”, the “walking and back pain” value ([1]; Example 18, 7.5 mg at bedtime for three days) was “walking better and reported reduced back pain” and the “leg and foot cramps” value ([1]; Example 18, 15 mg at bedtime) was “disappeared”. The “urinary incontinence and back pain” value [1, 10] was “no urinary incontinence or back pain”, the walking [1, 10] was “walking without a cane” and the patient-reported symptoms ([1]; Example 18, 30 mg at bedtime, seen eight days later) was “no dizziness, weakness, urinary incontinence and decreased gait problems, itching and pain”. For the same molecule, the “follow-up period with blood glucose remaining in that range” value [2] was 16 weeks, the colonoscopy exam [3] was “negative” and the symptoms ([3]; 50 mg twice a day) was “decreased intensity of symptoms”. The symptoms ([3]; 75 mg twice a day) was “decreased frequency of symptoms”, the diarrhea ([3]; 100 mg twice a day, asakol dosage reduced) was “diarrhea had stopped” and the clinical change ([4]; 15 mg in the morning and 30 mg every evening) was “further improvement”. For the same molecule, the clinical change ([4]; 15 mg per day, after seven days) was “minimal change”, the carbohydrate craving ([4]; 15 mg twice a day) was “markedly reduced” and the “facial and body rash, headaches, joint pain” value ([4]; 15 mg twice a day) was “began to subside, headaches disappeared and joint pain greatly diminished”. For the same molecule, the energy and mood ([4]; 15 mg twice a day, over the next two weeks) was “striking improvement in energy and mood”, the duration of benefit ([4]; prednisone reduced to 10 mg) was “over 6 months” and the “time without another episode of iritis” value [5] was “five”. For the same molecule, the “frequency and intensity of iritis” value ([5]; 50 mg per day) was “decreased”, the “duration of consistent benefits” value ([5]; despite cessation of methotrexate) was “more than 6 months” and the pain when walking ([5]; up to 65 mg per day, stabilized at 50 mg per day, medrol reduced to 5 mg per day) was “very significant decrease in pain when walking”. For the same molecule, the itching [6] was “no itching at all”, the mood [6] was “true stabilization of my mood” and the “time without recurrence of symptoms” value [7] was 19 months. For the same molecule, the duration of benefit ([8]; Example 8, 7.5 mg per day) was “more than 16 weeks”, the mucous ([8]; Example 8, 7.5 mg per day, after 7 days) was “decrease in mucous” and the mucous and bleeding ([8]; Example 8, 7.5 mg per day, after two weeks) was “no mucous or bleeding”. The adverse effect ([8]; Example 8, 15 mg per day) was “tired during the day”, the “stools, bowel frequency, mucous” value ([8]; Example 8, 15 mg per day, after two weeks) was “stools became darker with increase bowel frequency of movements and mucous” and the “mucous, bowel movements, bleeding” value ([8]; Example 8, resumed at 7.5 mg per day) was “decrease in mucous, bowel movements and bleeding”. For the same molecule, the duration of benefit ([8]; Example 10, 7.5 mg per day) was 18 weeks, the “bowel frequency, bleeding and mucous” value ([8]; Example 10, 15 mg per day, within one week) was “significant decrease in bowel frequency, bleeding and mucous” and the “bowel frequency, bleeding and mucous” value ([8]; Example 10, dose increased to 30 and then to 45 mg per day) was “reversal of benefits and then a further exacerbation of systems”. The “bowel frequency, bleeding and mucous” value ([8]; Example 10, resumed at 7.5 mg per day) was “significant decrease in frequency of bowel movement, bleeding and mucous”, the “efficacy in simple and complex partial seizures and secondarily generalized seizures” value (human epilepsy) was “effective as adjunctive therapy or as monotherapy” and the seizures [9] was “effectively block seizures”.
